Five compounds from ChEMBL document CHEMBL1944587, “4-Piperidin-4-ylidenemethyl-benzamides as δ-opioid receptor agonists for CNS indications: identifying clinical candidates” (Bioorg Med Chem Lett, 2012) can be followed below.

Structures are written as SMILES.

The series is described as follows: physchem. To be noted: octanol/water.
The term logD denotes the decadic logarithm of the distribution of all forms, ionised or not, between an organic phase and buffer at a given pH. High values mean a more lipophilic compound, low ones a more hydrophilic compound. The compound `O=C(c1ccc(C(=C2CCN(Cc3cscn3)CC2)c2cccc3cccnc23)cc1)N1CCCC1` showed a logD of 2.8. Turning to `CN(C)C(=O)c1ccc(C(=C2CCN(Cc3cscn3)CC2)c2cccc3cccnc23)cc1`, the pH-dependent lipophilicity (logD) was 2.3. On to `O=C(c1ccc(C(=C2CCN(Cc3cscn3)CC2)c2cccc3cccnc23)cc1)N1CCOCC1`, for which the logD amounted to 2.1.

`CN1CCN(C(=O)c2ccc(C(=C3CCN(Cc4cscn4)CC3)c3cccc4cccnc34)cc2)CC1` gave a logD of 2. To `O=C(c1ccc(C(=C2CCN(Cc3cscn3)CC2)c2cccc3cccnc23)cc1)N1CCC(O)CC1` belongs 1.9.
